Measurements taken from US10934263B2, “Charged ion channel blockers and methods for use” (Nocion Therapeutics, Inc., priority 2019, dated 2021).

Assays:
[1] = molecular target: T1, NaV1.7 (Homo sapiens, UniProt Q15858); assay: Automated patch clamp (Qube 384), internal block of NaV1.7 in HEK293 cells; format: cell-based; conditions: compound in internal solution, read-out: Nav1.7 Intracellular Inhibition (IC50)
T1 construct: expressed in transfected cells; tetracycline-inducible, kept under hygromycin and blasticidin
T1 sequence (Q15858 whole entry): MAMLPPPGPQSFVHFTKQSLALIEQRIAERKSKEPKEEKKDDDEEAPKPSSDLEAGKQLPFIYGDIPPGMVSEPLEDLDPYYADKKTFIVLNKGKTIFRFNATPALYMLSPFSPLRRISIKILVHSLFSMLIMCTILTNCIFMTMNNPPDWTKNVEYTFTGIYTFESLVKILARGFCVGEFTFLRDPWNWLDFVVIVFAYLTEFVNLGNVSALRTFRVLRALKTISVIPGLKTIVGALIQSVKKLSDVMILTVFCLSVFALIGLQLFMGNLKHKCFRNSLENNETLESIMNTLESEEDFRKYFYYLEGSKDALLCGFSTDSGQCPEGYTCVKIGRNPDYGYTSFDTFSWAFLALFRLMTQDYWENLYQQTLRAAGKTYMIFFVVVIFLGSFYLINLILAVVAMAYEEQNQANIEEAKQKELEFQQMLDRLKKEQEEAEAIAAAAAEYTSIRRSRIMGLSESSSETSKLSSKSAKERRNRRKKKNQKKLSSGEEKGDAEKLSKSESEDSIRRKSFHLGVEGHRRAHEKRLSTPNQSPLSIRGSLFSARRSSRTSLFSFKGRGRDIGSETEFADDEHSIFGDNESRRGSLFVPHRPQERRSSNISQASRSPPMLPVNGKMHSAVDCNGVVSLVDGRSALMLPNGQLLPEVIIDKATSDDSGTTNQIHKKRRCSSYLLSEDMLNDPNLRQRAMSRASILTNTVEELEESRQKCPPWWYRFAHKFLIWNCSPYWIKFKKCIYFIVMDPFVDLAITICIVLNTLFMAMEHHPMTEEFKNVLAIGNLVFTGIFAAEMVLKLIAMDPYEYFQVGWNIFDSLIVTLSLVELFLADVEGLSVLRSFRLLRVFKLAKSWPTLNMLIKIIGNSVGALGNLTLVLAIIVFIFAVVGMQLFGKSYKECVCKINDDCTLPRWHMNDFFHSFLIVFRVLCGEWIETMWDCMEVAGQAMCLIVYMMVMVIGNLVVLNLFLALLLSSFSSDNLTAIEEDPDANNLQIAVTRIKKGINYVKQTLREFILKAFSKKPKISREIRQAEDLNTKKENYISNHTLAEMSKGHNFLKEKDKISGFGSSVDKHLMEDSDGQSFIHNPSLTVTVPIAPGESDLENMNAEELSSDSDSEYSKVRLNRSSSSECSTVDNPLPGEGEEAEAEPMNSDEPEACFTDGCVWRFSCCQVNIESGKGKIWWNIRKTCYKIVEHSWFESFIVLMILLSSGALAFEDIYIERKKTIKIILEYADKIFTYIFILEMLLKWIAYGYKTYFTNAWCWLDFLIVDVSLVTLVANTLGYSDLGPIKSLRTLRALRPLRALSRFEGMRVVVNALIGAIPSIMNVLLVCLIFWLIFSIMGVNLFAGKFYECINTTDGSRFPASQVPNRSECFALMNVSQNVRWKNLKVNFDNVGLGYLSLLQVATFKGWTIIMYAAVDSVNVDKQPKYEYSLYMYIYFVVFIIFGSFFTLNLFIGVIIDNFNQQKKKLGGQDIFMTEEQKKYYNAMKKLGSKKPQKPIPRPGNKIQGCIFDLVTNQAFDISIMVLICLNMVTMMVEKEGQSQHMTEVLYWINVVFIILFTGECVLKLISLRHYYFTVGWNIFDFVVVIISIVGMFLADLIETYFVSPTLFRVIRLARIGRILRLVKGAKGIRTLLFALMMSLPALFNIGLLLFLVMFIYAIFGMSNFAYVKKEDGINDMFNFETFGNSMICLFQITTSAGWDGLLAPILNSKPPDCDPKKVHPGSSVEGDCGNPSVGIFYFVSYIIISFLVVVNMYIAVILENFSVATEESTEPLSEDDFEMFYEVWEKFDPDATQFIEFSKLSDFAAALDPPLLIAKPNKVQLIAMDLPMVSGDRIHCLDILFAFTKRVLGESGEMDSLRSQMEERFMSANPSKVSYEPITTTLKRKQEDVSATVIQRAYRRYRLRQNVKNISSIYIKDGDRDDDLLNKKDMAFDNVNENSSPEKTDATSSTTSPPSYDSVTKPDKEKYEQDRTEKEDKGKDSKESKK
Description: (§1) NaV1.7 was expressed in HEK293 cells upon induction with tetracycline. Cells were cultured in DMEM containing 10% dialyzed Fetal Bovine Serum (VWR, Radnor, Pa.), 1% Glutamax (VWR, Radnor, Pa.), 1% Penicillin-Streptomycin (VWR, Radnor, Pa.), 100 mg/L Hygromycin (Thermo Fisher Scientific, Waltham, Mass. and 5 mg/L Blasticidin (Alfa Aesar, Haverhill, Mass.). Cells were grown and maintained at 37° C. in a humidified environment containing 10% CO2 in air. Cells were detached from the culture flask for passage and harvested using 0.05% Trypsin-EDTA (Thermo Fisher Scientific, Waltham, Mass.). To induce NaV1.7, cells were induced with tetracycline (0.1-1 μg/mL, IBI Scientific, Peosta, Iowa) the day before recording.
(§2) Before experiments, cells were washed with DPBS (VWR, Radnor, Pa.), digested with Detachin (VWR Radnor, Pa.) and then triturated 10 times in CHO Serum-Free Media (VWR Radnor, Pa.) to resuspend the cells and to break apart cell aggregates. Cells were counted and the final concentration was set at 2-5 million cells per mL.
(§3) The intracellular solution contained the following: 140 mM CsF, 1 mM/5 mM EGTA/CsOH, 10 mM HEPES, 10 mM NaCl, adjusted to pH 7.3 with CsOH, and osmolality to 320 with sucrose. The external solution contained the following: 145 mM NaCl, 4 mM KCl, 1 mM MgCl2, 2 mM CaCl2, 10 mM HEPES, 10 mM Glucose, adjusted to pH 7.4 with CsOH and osmolality to 305 with sucrose. All chemicals are from Sigma-Aldrich, St. Louis, Mo. In order to test the degree of internal block by test compounds, the compounds were dissolved in internal solution at the indicated test concentration. […] In order to test the degree of external block by test compounds the compounds were dissolved in external solution at the indicated test concentration.
(§4) Automated Patch Clamps were performed on Qube 384 (Sophion Bioscience, Woburn Mass.) with multihole Qchips at a temperature setting of 22 degrees. The whole cells configuration was formed with default Qube seal and break-in parameter. The membrane potential was held at −100 mV before the voltage protocol began. Two voltage protocols were followed.
(§5) Step 1: Cells were held at −100 mV with a depolarized pulse to −20 mV for 10 ms, the interval was set at 5 s. Currents were corrected by default leak subtraction from every pulse. The duration was set at 5 mins.
(§6) Step 2: Cells were held at −100 mV with a depolarized pulse to −20 mV for 10 ms. The frequency was 5 Hz. Currents were corrected by leak subtraction calculated before step 2. The duration was set at 4 mins.
After Step 2, the Qchip was removed from the recording chamber. The internal solution was changed with solutions containing test compounds. Qchips were held at −100 mV without pulsing after being replaced in the recording chamber. The total solution switching time was 8 minutes. After the internal solution exchange, Cells were recorded and step 2 for repeated for 10 minutes.
Data analysis was performed by Sophion Analyzer. Cells were filtered with minimum 50 MOhm seal resistance and minimum 5 nA starting current. The rundown of the currents was corrected with control cells (Non-Drug). The remaining was calculated by averaging last 3 points in the end of experiments. The base line was calculated as the average of last 3 points of Step 2. IC50 curves were plotted with DR-plots/Hill function (a dose-response plot with a Hill fit). Data analysis was performed by Sophion Analyzer.

[2] = molecular target: T1, NaV1.7; assay: Automated patch clamp (Qube 384), external block of NaV1.7 in HEK293 cells; format: cell-based; conditions: compound in external solution, read-out: Nav1.7 Extracellular Inhibition (IC50)
Description: as §1, §2, §3, §4, §5, §6
After Step 2, the external solution was changed with solutions containing test compounds. Qchips were held at −100 mV without pulsing. The total solution switching time was 8 minutes. After the external solution exchange, cells were recorded using the same procedure as step 2 for 10 minutes.
Data analysis was performed by Sophion Analyzer. Data were corrected with control cells (Non-Drug). The IC50 data were plotted with DR-plots/Hill function (a dose-response plot with a Hill fit).

[3] = PAMPA membrane permeability assay; format: in vitro ADME; conditions: PAMPA permeability coefficient, GIT lipid, buffer pH 7.4, 4 hours incubation
Description: The PAMPA assay (pION, Inc., Woburn Mass.) was used to determine the ability of compounds of the invention to cross an artificial lipid membrane by passive diffusion. Test compounds were dissolved in DMSO (10 mM) and diluted 200-fold in buffer (pION Inc., pH 7.4) to provide 50 uM stock solutions. Buffer (150 μL) was added to a UV blank plate and stock solutions (150 μL) were transferred to a UV reference plate. The blank and reference spectrum were read using a spectrophotometer. Stock solutions (200 μL) were added to the donor plate of the PAMPA sandwich plate and an accept plate painted with GIT lipid (pION Inc, 5 μL) was placed on top. Buffer (200 μL) was added to the acceptor plate and the PAMPA sandwich plate was incubated for 4 hours. Aliquots (150 μL) from the acceptor plate were added to a UV plate and read as acceptor spectrum. Aliquots (150 μL) of the donor solutions were added to a UV analysis plate and read as donor spectrum. The permeability coefficient of test compounds was calculated using PAMPA Explorer™ software (version 3.5.0.4) based on the AUC of the reference plate, the donor plate, and the acceptor plate.

[4] = molecular target: T1, NaV1.7; assay: Whole cell patch clamp, internal block of NaV1.7 current (compound in internal solution); format: cell-based; conditions: % inhibition at 10 μM, compound applied internally, manual patch clamp; read-out: Nav1.7 Intracellular Inhibition
Description: Representative compounds of the invention were synthesized according to the described methods and tested for the ability to inhibit voltage-gated sodium channels.
as §1, with “expressed” for “expressed in HEK293 cells”, “recording and plated onto 24-well plates. Cells were washed with DPBS (VWR, Radnor, Pa.), trypsinized and then triturated five times in 10 mL of growth media to break apart cell aggregates. For one 24-well plate, 2 mL of cell suspension was mixed with 23 mL of fresh growth media and 0.1-1 μg/mL tetracycline added. 1 ml of mixed media with cells was then added to each well of a 24-well plate, with a 12 mm coverslip already placed in the bottom of the well. Cells were then incubated in 37° C. and 10% CO2 overnight.” for “recording.”
The intracellular solution contained the following (in mM) CsCl 135, NaCl 10, EGTA 10, HEPES 10, MgCl2 2, adjusted to pH 7.2 with CsOH. The external solution was a normal Ringer solution containing (in mM) NaCl 155, HEPES 10, glucose 10, KCl 3.5, CaCl2 1.5, MgCl2 1 adjusted to pH 7.4 with NaOH. CsCl is from Alfa Aesar, Haverhill, Mass. All other chemicals are from Sigma-Aldrich, St. Louis, Mo. In order to test the degree of internal block by test compounds the compounds were dissolved in internal solution at the indicated test concentration. […] In order to test the degree of external block by test compounds the compounds were dissolved in external solution at the indicated test concentration.
18-24 hours after cells were induced with tetracycline, coverslips were placed into a chamber filled with Normal Ringer solution at room temperature and the chamber placed on a microscope. Pipettes were pulled from borosilicate glass on a P97 puller (Sutter Instrument, Novato, Calif.) and polished with a MF-830 Microforge (Narishige International USA, Inc, Amityville, N.Y.) to have a resistance of 1.5-2.5 MΩ when filled with CsCl internal solution at room temperature. Healthy cells (those that are round and translucent with no visible blemishes) were chosen for seal formation. A seal was formed between the pipette and the cell, and a brief pulse of suction was used to “break in” and establish the whole-cell configuration. The membrane potential was held at −100 mV before the voltage protocol began. Only cells with series resistance between 1.5-5 MΩ were retained for analysis. The voltage protocol was as follows: Cells were held at −100 mV for 12 ms followed by a hyperpolarizing step to −105 mV for 12 ms to monitor the leak. Cells were then stepped back to −100 mV for 40 ms. Cells were then depolarized to −20 mV for 10 ms and then returned to −100 mV for 26 ms.
Once the recording was started, the voltage protocol was run at 30 second intervals for 5 minutes to get a stable baseline. This was followed by four 30-second periods of 5 Hz stimulation of the same voltage protocol separated by 1 minute of rest which was then followed by 0.33 Hz stimulation after the last train. Currents were recorded using PatchMaster software with Heka EPC10 (HEKA Electronics, Lambrecht, Germany). Only cells with inward current amplitudes at −20 mV between 400 pA and 4 nA were accepted. In addition, cells having leak currents greater than 10% of their current amplitudes were discarded. […]

Row | SMILES | IC50 [1] [µM] | IC50 [2] [µM] | PAMPA (10^−6 cm/s) [3] | inhibition at 10 µM [4] [%]
1 | CCOC(=O)Cn1c(C)cc[n+]1CC(=O)Nc1c(C)cccc1C [Compound 86] | 3 to 10 | > 100 | + (<0.1 10^−6 cm/s) | 
2 | Cc1cccc(C)c1NC(=O)C[n+]1cccn1CCC(C)C [Compound 74] | 3 to 10 | > 100 | + (<0.1 10^−6 cm/s) | 
3 | Cc1cccc(C)c1NC(=O)C[n+]1cccc(OCc2ccccc2)c1 [Compound 88] | 3 to 10 | > 100 | + (<0.1 10^−6 cm/s) | 
4 | Cc1cccc(C)c1NC(=O)C[n+]1cccn1C1CCC1 [Compound 72] | 3 to 10 | > 100 | + (<0.1 10^−6 cm/s) | 
5 | Cc1cccc(C)c1NC(=O)C[n+]1cccn1CCC#N [Compound 70] | 10 to 30 | > 100 | + (<0.1 10^−6 cm/s) | 
6 | Cc1cccc(C)c1NC(=O)C[n+]1cc(N)cc(C(F)(F)F)c1 [Compound 91] | 3 to 10 | 30 to 100 | + (<0.1 10^−6 cm/s) | 
7 | Cc1cccc(C)c1NC(=O)C[n+]1c(C)ccn1C [Compound 93] | 3 to 10 | > 100 | + (<0.1 10^−6 cm/s) | 
8 | CCOC(=O)Cn1ccc(C)[n+]1CC(=O)Nc1c(C)cccc1C [Compound 85] | 3 to 10 | > 100 | + (<0.1 10^−6 cm/s) | 
9 | Cc1cccc(C)c1NC(=O)C[n+]1cccn1Cc1ccccc1 [Compound 92] | 1 to 3 | > 100 | + (<0.1 10^−6 cm/s) | 
10 | Cc1cccc(C)c1NC(=O)C[n+]1cc(F)ccc1-c1ccccc1 [Compound 79] | 1 to 3 | 30 to 100 |  | > 95
11 | Cc1cccc(C)c1NC(=O)C[n+]1ccc(C(N)=O)c(C(F)(F)F)c1 [Compound 90] | 3 to 10 | > 100 | + (<0.1 10^−6 cm/s) | 
12 | CCCC(C(=O)Nc1c(C)cccc1C)[n+]1ccccc1 (stereo not drawn) [Compound 107] | 3 to 10 | > 100 | + (<0.1 10^−6 cm/s) | 

Continued, values first:

Row | IC50 [1] [µM] | IC50 [2] [µM] | PAMPA (10^−6 cm/s) [3] | inhibition at 10 µM [4] [%] | SMILES
13 | 1 to 3 | > 100 | + (<0.1 10^−6 cm/s) |  | Cc1cccc(C)c1NC(=O)C[n+]1ccc(C)n1C(C)C [Compound 82]
14 | 1 to 3 | > 100 | + (<0.1 10^−6 cm/s) |  | Cc1cccc(C)c1NC(=O)C[n+]1cccn1C1CC1 [Compound 68]
15 | 1 to 3 | > 100 | + (<0.1 10^−6 cm/s) |  | COc1cc(F)c[n+](CC(=O)Nc2c(C)cccc2C)c1 [Compound 78]
16 | 1 to 3 | > 100 | + (<0.1 10^−6 cm/s) |  | Cc1cccc(C)c1NC(=O)C[n+]1c(C)ccn1C(C)C [Compound 102]
17 | 1 to 3 | > 100 | ++ (0.1-2.0 10^−6 cm/s) |  | Cc1cccc(C)c1NC(=O)C[n+]1cccc(C(C)C)c1 [Compound 31]
18 | 1 to 3 | > 100 | + (<0.1 10^−6 cm/s) |  | CCOC(=O)CCn1ccc[n+]1CC(=O)Nc1c(C)cccc1C [Compound 80]
19 | < 1 | > 100 | + (<0.1 10^−6 cm/s) |  | Cc1cccc(C)c1NC(=O)C[n+]1cccc(OC(C)C)c1 [Compound 87]
